Test results from patent publication US11236129B2, “IL-17A binding peptides and medical uses thereof” (Dompe' Farmaceutici S.P.A., priority 2018, dated 2022).
Residues, ends and D or L forms follow the SMILES beside them.

target: IL-17RA/IL17RC dimerization induced by IL-17A (Homo sapiens, UniProt Q16552); assay: IL-17RA/IL17RC dimerization assay in response to IL-17A (PathHunter Cytokine Receptor Assay); assay type: cell-based; settings: IL-17A at EC80; read-out: IC50 in IL-17RA/IL7RC dimerization assay
Sequence (Q16552 24-155): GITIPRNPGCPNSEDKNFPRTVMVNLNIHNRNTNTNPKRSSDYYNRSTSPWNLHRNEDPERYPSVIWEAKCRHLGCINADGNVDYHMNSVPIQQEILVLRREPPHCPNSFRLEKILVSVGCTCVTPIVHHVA
Summary of the method: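 Receptor dimerization was read as chemiluminescence from complemented β-galactosidase after IL-17A at EC80 concentration for 6–16 h at 37 °C. Peptides were added 60 min before agonist, at 37 °C or room temperature, with 1% vehicle. Percent inhibition used the EC80-stimulated and vehicle wells as references.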

Compound | IC50 [µM]
CC(=O)N[C@H](C(=O)N[C@@H](CCCNC(=N)N)C(=O)N[C@@H](Cc1ccccc1)C(=O)N[C@@H](CCC(N)=O)C(=O)N[C@@H](Cc1ccccc1)C(=O)NCC(=O)N[C@@H](CCC(N)=O)C(=O)N[C@@H](CCC(=O)O)C(=O)N[C@@H](Cc1c[nH]c2ccccc12)C(=O)N[C@@H](Cc1ccc(O)cc1)C(=O)N[C@@H](CC(N)=O)C(=O)N[C@@H](Cc1ccccc1)C(=O)N[C@@H](Cc1ccccc1)C(=O)N[C@@H](CCCNC(=N)N)C(=O)N[C@@H](CCCNC(=N)N)C(N)=O)C(C)C [SEQ ID NO: 155] (Ac-VRFQFGQEWYNFFRR-NH2) | < 0.5
CC[C@H](C)[C@H](NC(=O)[C@@H](NC(=O)[C@@H](NC(=O)[C@H](Cc1c[nH]cn1)NC(=O)[C@@H](NC(=O)CNC(=O)[C@H](C)NC(=O)CNC(=O)[C@@H]1CCCN1C(=O)[C@@H](NC(=O)CNC(=O)[C@H](C)NC(=O)CNC(=O)[C@@H]1CCCN1C(=O)[C@@H](NC(C)=O)C(C)C)C(C)C)[C@@H](C)CC)C(C)C)[C@@H](C)O)C(N)=O [SEQ ID NO: 156] (Ac-VPGAGVPGAGIHVTI-NH2) | < 0.5
CC[C@H](C)[C@H](NC(=O)CNC(=O)[C@H](C)NC(=O)CNC(=O)[C@@H]1CCCN1C(=O)[C@@H](NC(=O)CNC(=O)[C@H](C)NC(=O)CNC(=O)[C@@H]1CCCN1C(=O)[C@@H](NC(C)=O)C(C)C)C(C)C)C(=O)N[C@@H](Cc1c[nH]cn1)C(=O)N[C@H](C(=O)N[C@H](C(=O)N[C@H](C(=O)N1CCC[C@H]1C(=O)N[C@@H](C)C(N)=O)[C@@H](C)CC)[C@@H](C)O)C(C)C [SEQ ID NO: 157] (Ac-VPGAGVPGAGIHVTIPA-NH2) | < 0.5
CC[C@H](C)[C@H](NC(=O)[C@H](Cc1c[nH]c2ccccc12)NC(=O)[C@H](CC(=O)O)NC(=O)[C@H](Cc1c[nH]c2ccccc12)NC(=O)[C@H](CC(C)C)NC(=O)[C@H](CC(=O)O)NC(=O)[C@H](C)NC(=O)[C@@H]1CCCN1C(=O)[C@@H](NC(=O)[C@@H](NC(=O)[C@@H](NC(=O)[C@H](Cc1c[nH]cn1)NC(=O)[C@H](C)NC(C)=O)C(C)C)[C@@H](C)O)[C@@H](C)CC)C(=O)N[C@@H](CC(N)=O)C(=O)N[C@@H](CCCCN)C(N)=O [SEQ ID NO: 158] (Ac-AHVTIPADLWDWINK-NH2) | < 10
CC[C@H](C)[C@H](NC(=O)[C@H](Cc1c[nH]c2ccccc12)NC(=O)[C@H](CC(=O)O)NC(=O)[C@H](Cc1c[nH]c2ccccc12)NC(=O)[C@H](CC(C)C)NC(=O)[C@H](CC(=O)O)NC(=O)[C@H](C)NC(=O)[C@@H]1CCCN1C(=O)[C@@H](NC(=O)[C@@H](NC(=O)[C@@H](NC(=O)[C@H](Cc1c[nH]cn1)NC(=O)CNC(C)=O)C(C)C)[C@@H](C)O)[C@@H](C)CC)C(=O)N[C@@H](CC(N)=O)C(=O)N[C@@H](CCCCN)C(N)=O [SEQ ID NO: 159] (Ac-GHVTIPADLWDWINK-NH2) | < 10
CC[C@H](C)[C@H](NC(=O)[C@H](Cc1c[nH]c2ccccc12)NC(=O)[C@H](CC(=O)O)NC(=O)[C@H](Cc1c[nH]c2ccccc12)NC(=O)[C@H](CC(C)C)NC(=O)[C@H](CC(=O)O)NC(=O)[C@H](C)NC(=O)[C@@H]1CCCN1C(=O)[C@@H](NC(=O)[C@@H](NC(=O)[C@@H](NC(=O)[C@H](Cc1c[nH]cn1)NC(=O)[C@H](CC(C)C)NC(C)=O)C(C)C)[C@@H](C)O)[C@@H](C)CC)C(=O)N[C@@H](CC(N)=O)C(=O)N[C@@H](CCCCN)C(N)=O [SEQ ID NO: 160] (Ac-LHVTIPADLWDWINK-NH2) | < 10
CC[C@H](C)[C@H](NC(=O)[C@H](Cc1c[nH]c2ccccc12)NC(=O)[C@H](CC(=O)O)NC(=O)[C@H](Cc1c[nH]c2ccccc12)NC(=O)[C@H](CC(C)C)NC(=O)[C@H](CC(=O)O)NC(=O)[C@H](C)NC(=O)[C@@H]1CCCN1C(=O)[C@@H](NC(=O)[C@@H](NC(=O)[C@@H](NC(=O)[C@H](Cc1c[nH]cn1)NC(=O)[C@@H]1CCCN1C(C)=O)C(C)C)[C@@H](C)O)[C@@H](C)CC)C(=O)N[C@@H](CC(N)=O)C(=O)N[C@@H](CCCCN)C(N)=O [SEQ ID NO: 161] (Ac-PHVTIPADLWDWINK-NH2) | < 10
CC[C@H](C)[C@H](NC(C)=O)C(=O)N[C@@H](CCCNC(=N)N)C(=O)N[C@H](C(=O)N[C@H](C(=O)N[C@H](C(=O)N1CCC[C@H]1C(=O)N[C@@H](C)C(=O)N[C@@H](CC(=O)O)C(=O)N[C@@H](CC(C)C)C(=O)N[C@@H](Cc1c[nH]c2ccccc12)C(=O)N[C@@H](CC(=O)O)C(=O)N[C@@H](Cc1c[nH]c2ccccc12)C(=O)N[C@H](C(=O)N[C@@H](CC(N)=O)C(=O)N[C@@H](CCCCN)C(N)=O)[C@@H](C)CC)[C@@H](C)CC)[C@@H](C)O)C(C)C [SEQ ID NO: 162] (Ac-IRVTIPADLWDWINK-NH2) | < 10
CC[C@H](C)[C@H](NC(C)=O)C(=O)N[C@@H](CCCCN)C(=O)N[C@H](C(=O)N[C@H](C(=O)N[C@H](C(=O)N1CCC[C@H]1C(=O)N[C@@H](C)C(=O)N[C@@H](CC(=O)O)C(=O)N[C@@H](CC(C)C)C(=O)N[C@@H](Cc1c[nH]c2ccccc12)C(=O)N[C@@H](CC(=O)O)C(=O)N[C@@H](Cc1c[nH]c2ccccc12)C(=O)N[C@H](C(=O)N[C@@H](CC(N)=O)C(=O)N[C@@H](CCCCN)C(N)=O)[C@@H](C)CC)[C@@H](C)CC)[C@@H](C)O)C(C)C [SEQ ID NO: 163] (Ac-IKVTIPADLWDWINK-NH2) | < 10
CC[C@H](C)[C@H](NC(C)=O)C(=O)N[C@@H](CCC(=O)O)C(=O)N[C@H](C(=O)N[C@H](C(=O)N[C@H](C(=O)N1CCC[C@H]1C(=O)N[C@@H](C)C(=O)N[C@@H](CC(=O)O)C(=O)N[C@@H](CC(C)C)C(=O)N[C@@H](Cc1c[nH]c2ccccc12)C(=O)N[C@@H](CC(=O)O)C(=O)N[C@@H](Cc1c[nH]c2ccccc12)C(=O)N[C@H](C(=O)N[C@@H](CC(N)=O)C(=O)N[C@@H](CCCCN)C(N)=O)[C@@H](C)CC)[C@@H](C)CC)[C@@H](C)O)C(C)C [SEQ ID NO: 164] (Ac-IEVTIPADLWDWINK-NH2) | < 10
CC[C@H](C)[C@H](NC(C)=O)C(=O)N[C@@H](CCC(N)=O)C(=O)N[C@H](C(=O)N[C@H](C(=O)N[C@H](C(=O)N1CCC[C@H]1C(=O)N[C@@H](C)C(=O)N[C@@H](CC(=O)O)C(=O)N[C@@H](CC(C)C)C(=O)N[C@@H](Cc1c[nH]c2ccccc12)C(=O)N[C@@H](CC(=O)O)C(=O)N[C@@H](Cc1c[nH]c2ccccc12)C(=O)N[C@H](C(=O)N[C@@H](CC(N)=O)C(=O)N[C@@H](CCCCN)C(N)=O)[C@@H](C)CC)[C@@H](C)CC)[C@@H](C)O)C(C)C [SEQ ID NO: 165] (Ac-IQVTIPADLWDWINK-NH2) | < 10
CC[C@H](C)[C@H](NC(C)=O)C(=O)N[C@@H](Cc1ccc(O)cc1)C(=O)N[C@H](C(=O)N[C@H](C(=O)N[C@H](C(=O)N1CCC[C@H]1C(=O)N[C@@H](C)C(=O)N[C@@H](CC(=O)O)C(=O)N[C@@H](CC(C)C)C(=O)N[C@@H](Cc1c[nH]c2ccccc12)C(=O)N[C@@H](CC(=O)O)C(=O)N[C@@H](Cc1c[nH]c2ccccc12)C(=O)N[C@H](C(=O)N[C@@H](CC(N)=O)C(=O)N[C@@H](CCCCN)C(N)=O)[C@@H](C)CC)[C@@H](C)CC)[C@@H](C)O)C(C)C [SEQ ID NO: 166] (Ac-IYVTIPADLWDWINK-NH2) | < 10
CC[C@H](C)[C@H](NC(C)=O)C(=O)N[C@@H](Cc1c[nH]cn1)C(=O)N[C@@H](C)C(=O)N[C@H](C(=O)N[C@H](C(=O)N1CCC[C@H]1C(=O)N[C@@H](C)C(=O)N[C@@H](CC(=O)O)C(=O)N[C@@H](CC(C)C)C(=O)N[C@@H](Cc1c[nH]c2ccccc12)C(=O)N[C@@H](CC(=O)O)C(=O)N[C@@H](Cc1c[nH]c2ccccc12)C(=O)N[C@H](C(=O)N[C@@H](CC(N)=O)C(=O)N[C@@H](CCCCN)C(N)=O)[C@@H](C)CC)[C@@H](C)CC)[C@@H](C)O [SEQ ID NO: 167] (Ac-IHATIPADLWDWINK-NH2) | < 10
CC[C@H](C)[C@H](NC(C)=O)C(=O)N[C@@H](Cc1c[nH]cn1)C(=O)NCC(=O)N[C@H](C(=O)N[C@H](C(=O)N1CCC[C@H]1C(=O)N[C@@H](C)C(=O)N[C@@H](CC(=O)O)C(=O)N[C@@H](CC(C)C)C(=O)N[C@@H](Cc1c[nH]c2ccccc12)C(=O)N[C@@H](CC(=O)O)C(=O)N[C@@H](Cc1c[nH]c2ccccc12)C(=O)N[C@H](C(=O)N[C@@H](CC(N)=O)C(=O)N[C@@H](CCCCN)C(N)=O)[C@@H](C)CC)[C@@H](C)CC)[C@@H](C)O [SEQ ID NO: 168] (Ac-IHGTIPADLWDWINK-NH2) | < 10
CC[C@H](C)[C@H](NC(C)=O)C(=O)N[C@@H](Cc1c[nH]cn1)C(=O)N[C@@H](CC(C)C)C(=O)N[C@H](C(=O)N[C@H](C(=O)N1CCC[C@H]1C(=O)N[C@@H](C)C(=O)N[C@@H](CC(=O)O)C(=O)N[C@@H](CC(C)C)C(=O)N[C@@H](Cc1c[nH]c2ccccc12)C(=O)N[C@@H](CC(=O)O)C(=O)N[C@@H](Cc1c[nH]c2ccccc12)C(=O)N[C@H](C(=O)N[C@@H](CC(N)=O)C(=O)N[C@@H](CCCCN)C(N)=O)[C@@H](C)CC)[C@@H](C)CC)[C@@H](C)O [SEQ ID NO: 169] (Ac-IHLTIPADLWDWINK-NH2) | < 10
CC[C@H](C)[C@H](NC(C)=O)C(=O)N[C@@H](Cc1c[nH]cn1)C(=O)N1CCC[C@H]1C(=O)N[C@H](C(=O)N[C@H](C(=O)N1CCC[C@H]1C(=O)N[C@@H](C)C(=O)N[C@@H](CC(=O)O)C(=O)N[C@@H](CC(C)C)C(=O)N[C@@H](Cc1c[nH]c2ccccc12)C(=O)N[C@@H](CC(=O)O)C(=O)N[C@@H](Cc1c[nH]c2ccccc12)C(=O)N[C@H](C(=O)N[C@@H](CC(N)=O)C(=O)N[C@@H](CCCCN)C(N)=O)[C@@H](C)CC)[C@@H](C)CC)[C@@H](C)O [SEQ ID NO: 170] (Ac-IHPTIPADLWDWINK-NH2) | < 10
CC[C@H](C)[C@H](NC(C)=O)C(=O)N[C@@H](Cc1c[nH]cn1)C(=O)N[C@H](C(=O)N[C@H](C(=O)N[C@H](C(=O)N1CCC[C@H]1C(=O)N[C@@H](C)C(=O)N[C@@H](CC(=O)O)C(=O)N[C@@H](CC(C)C)C(=O)N[C@@H](Cc1c[nH]c2ccccc12)C(=O)N[C@@H](CC(=O)O)C(=O)N[C@@H](Cc1c[nH]c2ccccc12)C(=O)N[C@H](C(=O)N[C@@H](CC(N)=O)C(=O)N[C@@H](CCCCN)C(N)=O)[C@@H](C)CC)[C@@H](C)CC)[C@@H](C)O)[C@@H](C)CC [SEQ ID NO: 171] (Ac-IHITIPADLWDWINK-NH2) | < 10
